Results on seven molecules are retold here after PMC9750858, “Rapid biosensor development using plant hormone receptors as reprogrammable scaffolds” (Nature Biotechnology, 2022).

Positions count from the first letter of the chain named. Numbers in names are those of the source. Where “and” joins values, the source holds several entries; their conditions need not be identical. Equal values may be shown once. Read-outs that look alike come from different tables or passages of the source.

Assay [1] has as its target T1, PYR1^DIAZI (Arabidopsis thaliana, UniProt O49686, A160V/E8G/F108Y/F159G/L87M/M158V/V81Y). Put plainly: Split NanoLuc luciferase complementation in yeast, NLuc^N-PYR1^DIAZI/NLuc^C-HAB1. It counts as cell-based. Set-up: >PYR1-DIAZI; expressed in transfected cells; host or cells: Saccharomyces cerevisiae BY4742. Conditions: Figure 4f(top), 3 replicates.
Assay [2] deals with T1, PYR1^DIAZI. Put plainly: Yeast transcriptional activation circuit Z4-PYR1/VP64-ΔN-HAB1, GFP reporter, PYR1^DIAZI. The following applies: read-out: EC50, yeast transcription circuit; PYR1^DIAZI, off-target ligand.
Assay [3] addresses T2, PYR1^PIRI (Arabidopsis thaliana, UniProt O49686, A160T/E130G/F159T/K59R/N119S/S122Q/S92M/V174A).
T2 construct: >PYR1-PIRI; expressed in transfected cells; host or cells: Saccharomyces cerevisiae BY4742
Put plainly: Split NanoLuc luciferase complementation in yeast, NLuc^N-PYR1^PIRI/NLuc^C-HAB1. It is filed as cell-based.

Assay [4] concerns the target T3, PYR1^PIRI / HAB1 (Arabidopsis thaliana, UniProt O49686, A160T/E130G/F159T/K59R/N119S/S122Q/S92M/V174A).
T3 construct: made in house
T3 sequence (O49686 with tags, fused parts or gaps K59R/S92M/N119S/S122Q/E130G/F159T/A160T/V174A): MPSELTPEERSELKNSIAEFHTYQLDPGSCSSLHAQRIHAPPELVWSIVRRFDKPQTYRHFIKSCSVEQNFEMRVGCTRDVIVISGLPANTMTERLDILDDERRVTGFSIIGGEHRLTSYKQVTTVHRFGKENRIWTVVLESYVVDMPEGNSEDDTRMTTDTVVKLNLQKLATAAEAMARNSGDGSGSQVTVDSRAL
Put plainly: Ligand/receptor-mediated PP2C (HAB1 phosphatase) inhibition, PYR1^PIRI. It counts as biochemical.

Assay [5] deals with T4, PYR1^M (H60P, N90S) (Arabidopsis thaliana, UniProt O49686, H60P/N90S).
T4 construct: made in house; host or cells: E. coli (pET derivatives)
T4 sequence (O49686 1-191 H60P/N90S): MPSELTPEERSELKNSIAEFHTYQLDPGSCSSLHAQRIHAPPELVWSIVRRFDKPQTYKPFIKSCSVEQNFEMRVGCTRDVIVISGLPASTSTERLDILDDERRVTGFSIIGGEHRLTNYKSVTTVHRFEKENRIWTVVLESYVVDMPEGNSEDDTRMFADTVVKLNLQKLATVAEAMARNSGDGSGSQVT
T4 sequence (Q9CAJ0 179-511 C186S/R199A/D204A/S209V/H248S/F260E/C274S/D287K/S292N/S342A/M358I/N377A/R422E/N439S/M483K partner): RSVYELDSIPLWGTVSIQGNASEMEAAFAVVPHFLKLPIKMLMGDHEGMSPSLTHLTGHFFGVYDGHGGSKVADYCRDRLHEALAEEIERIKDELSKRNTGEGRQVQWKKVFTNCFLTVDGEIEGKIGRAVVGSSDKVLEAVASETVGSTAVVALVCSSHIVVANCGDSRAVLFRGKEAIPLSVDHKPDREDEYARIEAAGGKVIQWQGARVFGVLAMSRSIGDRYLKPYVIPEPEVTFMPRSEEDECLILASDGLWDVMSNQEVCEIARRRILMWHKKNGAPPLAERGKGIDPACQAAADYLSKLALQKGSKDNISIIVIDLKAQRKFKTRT
Put plainly: ELISA-like plate assay, immobilized PYR1^M, biotinylated ΔN-HAB1^T+, streptavidin-HRP. The following applies: for ELISA signal generation, positive control (source data): PYR1^M tested with ABA, replicates, listed as + CNTRL. It is filed as binding. (In general: An ELISA detects its analyte on a solid surface through an enzyme-linked reagent.)

In assay [6] the target is T5, PYR1^4F / ΔN-HAB1 (Arabidopsis thaliana, UniProt O49686, A160G/F159V/H115Q/Y120G).
T5 construct: 6xHis (N); made in house; host or cells: E. coli BL21 (DE3) pLysS
T5 sequence (O49686 with tags, fused parts or gaps H115Q/Y120G/F159V/A160G): T3 sequence (O49686 with tags, fused parts or gaps K59R/S92M/N119S/S122Q/E130G/F159T/A160T/V174A) with R59K, M92S, H115Q, S119N, Y120G, Q122S, G130E, T159V, T160G, A174V
T5 sequence (Q9CAJ0 179-511 partner): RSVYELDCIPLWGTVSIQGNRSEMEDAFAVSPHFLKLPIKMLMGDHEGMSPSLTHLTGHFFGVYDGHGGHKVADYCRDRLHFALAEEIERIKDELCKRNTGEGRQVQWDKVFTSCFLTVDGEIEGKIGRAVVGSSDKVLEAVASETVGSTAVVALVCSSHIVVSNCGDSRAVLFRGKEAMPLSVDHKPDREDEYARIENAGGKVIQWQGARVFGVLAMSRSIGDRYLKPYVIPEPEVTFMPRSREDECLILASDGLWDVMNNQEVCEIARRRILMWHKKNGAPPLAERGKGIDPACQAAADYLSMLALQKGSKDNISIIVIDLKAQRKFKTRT
Put plainly: Ligand/receptor-mediated PP2C (ΔN-HAB1 phosphatase) inhibition, PYR1^4F. It counts as biochemical. The procedure:
Coding sequences of the cannabinoid sensors were cloned into the protein expression vector pET28a to encode 6×His-tag-receptor fusions. Constructs were sequenced and transformed into the BL21 (DE3) pLysS E. coli strain for heterologous expression with IPTG (1 mM), followed by purification, using affinity chromatography, as previously reported. In vitro validation of evolved sensors was performed by using recombinant sensors and ΔN-HAB1 (HAB1 Δ1–178, ref. [36]) proteins, as previously described. […] Cannabinoid concentration curves ranged from 4 to 10,000 nM, and median inhibitory concentrations for PP2C inhibition were obtained via fluorescent measurement in the presence of 1 mM 4-methylumbelliferyl phosphate.

The target in assay [7] is T6, PYR1^WIN-M (Arabidopsis thaliana, UniProt O49686, A160I/D26G/E4G/F159A/H60P/K59Q/N90S/Y23H).
T6 construct: made in house
T6 sequence (O49686 with tags, fused parts or gaps E4G/Y23H/D26G/K59Q/H60P/N90S/F159A/A160I): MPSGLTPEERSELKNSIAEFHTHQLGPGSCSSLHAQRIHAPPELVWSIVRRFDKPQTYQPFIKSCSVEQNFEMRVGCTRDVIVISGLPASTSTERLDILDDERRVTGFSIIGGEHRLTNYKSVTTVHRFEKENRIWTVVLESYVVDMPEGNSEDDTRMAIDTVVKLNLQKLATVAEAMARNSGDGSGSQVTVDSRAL
Put plainly: ELISA-like plate assay, immobilized PYR1^WIN-M, biotinylated ΔN-HAB1^T+. It counts as binding. The following applies: replicates.

The target in assay [8] is T7, PYR1^4F (Arabidopsis thaliana, UniProt O49686, A160G/F159V/H115Q/Y120G).
T7 sequence (O49686 with tags, fused parts or gaps H115Q/Y120G/F159V/A160G): T3 sequence (O49686 with tags, fused parts or gaps K59R/S92M/N119S/S122Q/E130G/F159T/A160T/V174A) with R59K, M92S, H115Q, S119N, Y120G, Q122S, G130E, T159V, T160G, A174V
T7 sequence (Q9CAJ0 179-511 partner): T5 sequence (Q9CAJ0 179-511 partner)
Put plainly: Split NanoLuc luciferase complementation in yeast, NLuc^N-PYR1^4F/NLuc^C-ΔN-HAB1. It counts as cell-based. Set-up: >PYR1-4FMDMB; expressed in transfected cells; host or cells: Saccharomyces cerevisiae BY4742.

Assay [9] concerns the target T7, PYR1^4F. Put plainly: Yeast transcriptional activation circuit Z4-PYR1/VP64-ΔN-HAB1, GFP reporter, PYR1^4F.
Assay [10] has as its target NLuc^N-PYR1^WIN (Arabidopsis) (UniProt O49686).
The target in assay [11] is NLuc^N-PYR1^4F (Arabidopsis) (UniProt O49686).
Assay [12] deals with NLuc^N-PYR1^PIRI (Arabidopsis) (UniProt O49686).
The target in assay [13] is NLuc^N-PYR1^DIAZI (Arabidopsis) (UniProt O49686).
Assay [14] concerns the target T8, ABA-PYR1M complex (Arabidopsis thaliana, UniProt O49686, H60P/N90S).
T8 construct: c-myc (display detection tag); expressed in transfected cells; host or cells: yeast (surface display of PYR1^M); the HAB1 variants were recombinant and purified
T8 sequence (O49686 1-191 H60P/N90S): T4 sequence (O49686 1-191 H60P/N90S)
Put plainly: Yeast surface display titration of HAB1 variants against PYR1^M in the presence of 500 nM ABA. It is filed as binding. The following applies: HAB1 variant for the ABA-PYR1M complex, 95% CI in brackets, read-out: KD2. The protocol:
For crystallographic structures, PYL2 and ΔN-HAB1^T+ were expressed in E. coli and purified as described previously. Assays for phosphatase activity and apparent Tm, measured via thermal challenge using yeast surface display, were performed essentially as previously described.
(a) Assessment of stabilized, inactivated 6xHis -MBP-ΔN -HAB1 variants. Experiments were repeated on two separat e days using independently generated batches of protein. Error bars indicate 1 SD of 3 measure ments . Sets of mutations f or each variant are noted in Supporting File 1.
MBP-ΔN -HAB1 variants using p-NPP.
HAB1 variants using YSD of PYR1M, in the presence of 500 nM ABA and 20 nM 6xHis -MBP-ΔN -HAB1 variant. The […]
here ref ers to streptavidin -phycoerythrin.
(b) Gating strategy for analysis of data shown in part (a). The f luorescence (a.u.) reported in part (a) is the gated ΔN - HAB 1T+ binding as measured by streptavidin -phycoeryt hrin (SAPE).

T1 sequence (O49686 other isoform, or with tags, fused parts or gaps E8G/V81Y/L87M/F108Y/M158V/F159G/A160V, one chain of several): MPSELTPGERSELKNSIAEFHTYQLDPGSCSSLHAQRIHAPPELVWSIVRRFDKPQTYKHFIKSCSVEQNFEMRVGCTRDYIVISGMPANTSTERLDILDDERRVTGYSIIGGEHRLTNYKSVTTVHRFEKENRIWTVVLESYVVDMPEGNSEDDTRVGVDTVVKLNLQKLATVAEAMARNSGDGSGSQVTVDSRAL

`CCOP(=S)(OCC)SCn1nnc2ccccc2c1=O` [Azinphos-ethyl, azinphos-ethyl]: the “Sensor signal (Figure 4f top), replicate values” in [1] ([Agonist] 1e-5 nM) was 19.1784 and 9.602 and 15.5607; in assay [1] ([Agonist] 0.5 nM), 28.6964 and 14.557 and 20.4786; in assay [1] ([Agonist] 1 nM), 22.2741 and 20.8671 and 16.0353; in assay [1] ([Agonist] 10 nM) it was 14.152 and 32.187 and 17.3809; in assay [1] ([Agonist] 100 nM), 20.787 and 38.118 and 25.3718; in [1] ([Agonist] 1000 nM) it was 52.3582 and 54.3696 and 50.5941. Also, the “Sensor signal (Figure 4f top), replicate values” in [1] ([Agonist] 10000 nM) was 95.7293 and 70.2485 and 89.5341; in assay [1] ([Agonist] 100000 nM) it was 109.007 and 68.7025 and 93.3077. Also, the concentration for a half-maximal effect (EC50) – broadly, the concentration giving half of the maximal effect – in assay [2] came out at 1100 nM.
As to `CCN(CC)c1nc(C)cc(OP(=S)(OC)OC)n1` [Pirimiphos-methyl, pirimiphos-methyl], the EC50 in assay [3] worked out at 19 nM; in assay [4], 58 nM. The “ligand concentrations required for activation of PYR1^PIRI above background” value in assay [4] (HAB1 inhibition and Y2H assays) is recorded as “low-nanomolar concentrations”.
For `CC1=CC(=O)CC(C)(C)[C@@]1(O)/C=C/C(C)=C\C(=O)O` [ABA, abscisic acid], the “ELISA signal generation, positive control (source data)” value in assay [5] (2 nM) was 2.266 and 2.046 and 2.24; in [5] (2 μM), 3.553 and 3.555 and 3.41. Also, the “Amax [AU 450 nm]” value in [5] (global fit, PYR1M/ABA/ΔN-HAB1T+ system, Biorep 1-3) is 2 AU 450 nm and 2.8 AU 450 nm. Besides, the Kd in [5] (global fit, PYR1M/ABA/ΔN-HAB1T+ system, Biorep 1-3, read-out: KD1) was 820 nM and 780 nM and 2090 nM.
As to `COC(=O)C(NC(=O)c1nn(CCCCF)c2ccccc12)C(C)(C)C` (centres unmarked) [4F-MDMB, 4F-MDMB-BUTINACA], the values for the EC50 in [6], in assay [8] and in [9] were 102 nM, 25 nM and 23 nM, respectively. Also, the “ELISA signal generation, receptor cross-reactivity (source data)” value is 0.813 and 0.154 and 0.125 in [7] (cannabinoid at 2 nM); 0.116 and 0.117 and 0.101 in [7] (cannabinoid at 2 μM).
“NLuc^C-ΔN-HAB1 (from UniProt Q9CAJ0 179-511) (enzyme)”: the in vitro inhibition of ΔN-HAB1 phosphatase activity by recombinant 6×His-PYR1^WIN (50 nM receptor, 25 nM ΔN-HAB1, 4-methylumbelliferyl phosphate); EC50 of the ligand WIN 55,212-2 in assay [10] was 72 nM. Moreover, the in vitro inhibition of ΔN-HAB1 phosphatase activity by recombinant 6×His-PYR1^4F (25 nM receptor, 25 nM ΔN-HAB1, 4-methylumbelliferyl phosphate); EC50 of the ligand 4F-MDMB-BUTINACA in assay [11] came to 102 nM. Also, the receptor-mediated inhibition of HAB1 phosphatase activity in vitro; EC50 of the ligand pirimiphos-methyl in assay [12] worked out at 58 nM. Moreover, the receptor-mediated inhibition of HAB1 phosphatase activity in vitro; EC50 of the ligand diazinon in [13] came to 36 nM.

B1: T+ (723): stabilized, catalytically inactive ΔN-HAB1 derivative with 15 mutations (pJS723) (protein)
chain: T4 sequence (Q9CAJ0 179-511 C186S/R199A/D204A/S209V/H248S/F260E/C274S/D287K/S292N/S342A/M358I/N377A/R422E/N439S/M483K partner)
modifications: biotinylated in the ELISA-like assays
As to B1, the Kd came to 2.13 nM in assay [14] (Biorep 1) and 4.76 nM in [14] (Biorep 2).

B2: WT (636): 6×His–MBP–ΔN-HAB1 (C186S, C274S) (protein)
chain: T5 sequence (Q9CAJ0 179-511 partner) with C8S, C96S
Consider B2, for which the Kd in assay [14] (Biorep 1) stood at 2.53 nM; in [14] (Biorep 2) it was 5.01 nM.
